Results taken from ChEMBL document CHEMBL1122727, “Adrenoceptor and tetrabenazine antagonism activities of some pyridinyltetrahydropyridines” (J Med Chem, 1984).

Tests used:
[1] = target: T1, Adrenergic receptor alpha-2 (Rattus norvegicus, UniProt P22086+P19328+P22909); assay: Antagonistic activity against clonidine-stimulated rat vas deferens presynaptic alpha-2 adrenergic receptor; type: functional, tissue-based
T1 sequence (P22086 whole entry): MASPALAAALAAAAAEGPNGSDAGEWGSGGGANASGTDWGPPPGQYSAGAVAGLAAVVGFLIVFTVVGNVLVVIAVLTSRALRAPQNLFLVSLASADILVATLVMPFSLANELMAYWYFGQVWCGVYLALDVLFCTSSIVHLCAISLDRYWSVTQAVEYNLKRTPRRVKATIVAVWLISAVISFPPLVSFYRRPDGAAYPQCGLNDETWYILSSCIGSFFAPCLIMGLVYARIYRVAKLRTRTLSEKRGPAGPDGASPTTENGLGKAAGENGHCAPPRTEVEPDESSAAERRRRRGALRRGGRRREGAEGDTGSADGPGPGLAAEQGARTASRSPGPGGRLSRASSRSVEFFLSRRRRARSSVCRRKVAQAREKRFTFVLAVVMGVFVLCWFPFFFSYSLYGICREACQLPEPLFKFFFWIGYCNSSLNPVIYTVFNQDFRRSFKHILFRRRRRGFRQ
T1 sequence (P19328 whole entry): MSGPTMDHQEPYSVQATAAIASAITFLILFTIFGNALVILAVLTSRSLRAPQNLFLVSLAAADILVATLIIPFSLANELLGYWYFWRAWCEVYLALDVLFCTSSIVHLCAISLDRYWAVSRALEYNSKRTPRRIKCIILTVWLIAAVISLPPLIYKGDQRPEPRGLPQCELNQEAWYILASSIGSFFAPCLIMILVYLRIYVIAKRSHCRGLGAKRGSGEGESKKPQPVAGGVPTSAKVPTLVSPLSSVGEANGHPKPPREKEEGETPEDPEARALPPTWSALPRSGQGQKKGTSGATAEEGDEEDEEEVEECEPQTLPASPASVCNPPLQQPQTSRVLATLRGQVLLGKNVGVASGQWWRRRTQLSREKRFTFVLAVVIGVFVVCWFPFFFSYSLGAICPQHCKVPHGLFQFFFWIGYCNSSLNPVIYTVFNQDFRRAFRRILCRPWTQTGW
T1 sequence (P22909 whole entry): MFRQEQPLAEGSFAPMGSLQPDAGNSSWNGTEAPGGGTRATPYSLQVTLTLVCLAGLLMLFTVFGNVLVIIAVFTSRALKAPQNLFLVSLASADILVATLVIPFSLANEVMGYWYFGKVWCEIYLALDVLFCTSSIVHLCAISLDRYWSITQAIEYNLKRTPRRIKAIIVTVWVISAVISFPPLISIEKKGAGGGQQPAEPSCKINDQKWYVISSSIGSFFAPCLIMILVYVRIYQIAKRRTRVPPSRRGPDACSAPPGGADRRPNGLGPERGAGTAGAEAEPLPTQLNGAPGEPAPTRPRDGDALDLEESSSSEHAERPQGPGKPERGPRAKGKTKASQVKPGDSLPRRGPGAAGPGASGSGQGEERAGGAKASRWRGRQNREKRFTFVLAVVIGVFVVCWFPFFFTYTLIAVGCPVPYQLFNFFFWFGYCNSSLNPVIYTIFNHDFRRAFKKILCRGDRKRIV

[2] = target: T2, Alpha-1A adrenergic receptor (Bos taurus, UniProt P18130); assay: Displacement of [3H]prazosin from calf cerebral cortex alpha-1 adrenergic receptor; type: tissue-based
T2 sequence (P18130 whole entry): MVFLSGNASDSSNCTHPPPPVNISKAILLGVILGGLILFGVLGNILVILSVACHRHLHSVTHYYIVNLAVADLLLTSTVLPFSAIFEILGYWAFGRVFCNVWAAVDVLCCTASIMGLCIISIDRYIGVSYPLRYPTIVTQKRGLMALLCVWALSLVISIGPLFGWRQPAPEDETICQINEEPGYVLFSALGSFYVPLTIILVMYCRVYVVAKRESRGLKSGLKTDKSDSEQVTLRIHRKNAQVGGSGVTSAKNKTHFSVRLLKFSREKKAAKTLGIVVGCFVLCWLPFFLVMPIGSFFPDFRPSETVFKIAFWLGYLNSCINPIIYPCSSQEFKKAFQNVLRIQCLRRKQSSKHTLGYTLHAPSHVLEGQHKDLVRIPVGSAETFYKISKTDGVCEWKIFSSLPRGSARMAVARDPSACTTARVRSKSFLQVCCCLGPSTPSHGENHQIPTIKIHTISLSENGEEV

[3] = Displacement of [3H]clonidine from calf cerebral cortex alpha-2 adrenergic receptor; type: tissue-based, Bos taurus
[4] = Relative binding to alpha-1a and alpha-2 adrenergic receptors (ratio of Ki-prazosin and Ki-clonidine)
[5] = Selectivity ratio expressed as the ratio of -log methoxamine pA2 to -log clonidine pA2
[6] = target: T3, Adrenergic receptor alpha-1 (Rattus norvegicus, UniProt P15823+P23944+P43140); assay: Antagonistic activity upon postsynaptic alpha-1 adrenergic receptor was determined in the rat isolated, field stimulated vas deferens using methoxamine; type: functional, tissue-based
T3 sequence (P15823 whole entry): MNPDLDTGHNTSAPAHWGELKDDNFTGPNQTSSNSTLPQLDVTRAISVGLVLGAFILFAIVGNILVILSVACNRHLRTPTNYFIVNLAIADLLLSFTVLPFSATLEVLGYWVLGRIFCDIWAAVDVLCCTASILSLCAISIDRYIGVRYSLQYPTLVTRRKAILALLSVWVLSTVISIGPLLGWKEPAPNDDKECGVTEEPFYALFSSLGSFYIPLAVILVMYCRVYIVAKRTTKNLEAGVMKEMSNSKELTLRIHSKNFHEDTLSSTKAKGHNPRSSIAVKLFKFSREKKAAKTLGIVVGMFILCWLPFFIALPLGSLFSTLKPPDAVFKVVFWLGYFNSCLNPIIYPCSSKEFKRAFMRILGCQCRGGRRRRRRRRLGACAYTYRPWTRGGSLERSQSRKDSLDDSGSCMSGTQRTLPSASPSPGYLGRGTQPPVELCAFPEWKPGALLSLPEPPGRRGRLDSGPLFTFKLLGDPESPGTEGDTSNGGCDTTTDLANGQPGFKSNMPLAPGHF
T3 sequence (P23944 whole entry): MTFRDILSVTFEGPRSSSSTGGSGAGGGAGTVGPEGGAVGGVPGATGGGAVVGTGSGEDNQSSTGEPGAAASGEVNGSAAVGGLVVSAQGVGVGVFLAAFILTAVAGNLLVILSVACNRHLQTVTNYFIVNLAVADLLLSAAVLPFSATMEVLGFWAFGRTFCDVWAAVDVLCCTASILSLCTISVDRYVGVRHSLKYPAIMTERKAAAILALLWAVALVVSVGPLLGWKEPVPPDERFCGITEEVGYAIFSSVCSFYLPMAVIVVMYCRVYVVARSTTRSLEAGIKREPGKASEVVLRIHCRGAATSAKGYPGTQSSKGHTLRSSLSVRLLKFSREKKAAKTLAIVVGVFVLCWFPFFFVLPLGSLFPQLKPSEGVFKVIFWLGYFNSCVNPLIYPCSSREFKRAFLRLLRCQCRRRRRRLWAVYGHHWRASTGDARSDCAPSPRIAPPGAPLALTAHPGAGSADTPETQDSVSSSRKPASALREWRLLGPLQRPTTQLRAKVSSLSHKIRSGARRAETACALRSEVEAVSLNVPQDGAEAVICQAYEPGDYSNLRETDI
T3 sequence (P43140 whole entry): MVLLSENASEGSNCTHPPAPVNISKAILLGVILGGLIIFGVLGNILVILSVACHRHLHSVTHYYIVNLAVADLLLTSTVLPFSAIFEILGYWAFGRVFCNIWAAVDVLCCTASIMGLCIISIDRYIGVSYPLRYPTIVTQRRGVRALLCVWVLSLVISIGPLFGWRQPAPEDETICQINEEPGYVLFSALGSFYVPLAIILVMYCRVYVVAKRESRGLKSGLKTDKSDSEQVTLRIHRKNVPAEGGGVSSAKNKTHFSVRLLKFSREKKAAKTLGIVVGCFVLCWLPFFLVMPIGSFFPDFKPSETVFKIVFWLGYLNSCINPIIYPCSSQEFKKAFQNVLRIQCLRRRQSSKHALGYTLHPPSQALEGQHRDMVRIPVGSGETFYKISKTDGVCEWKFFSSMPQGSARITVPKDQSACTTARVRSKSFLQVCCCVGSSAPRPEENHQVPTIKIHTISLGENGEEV

Mus musculus = assay: Compound was evaluated for its antagonistic effect on the Tetrabenazine-induced ptosis following intravenous administration; type: functional

SMILES | pA2 [1] | Ki [2] [nM] | Ki [3] [nM] | Selectivity ratio [4] | Selectivity ratio [5] | pA2 [6] | ED50 (Mus musculus) [mg/kg]
CN1CC=C(c2ncccc2Cl)CC1 | < 5.9 | 2260 | 72 | 31 |  |  | 
CN1CC=C(c2cccnc2)CC1 | < 5.8 | 4800 | 750 | 6.4 |  |  | 
CN1CCN(c2ncccc2F)CC1 |  |  | 5 | 98 | 16 |  | 
CN1CC=C(c2ncccc2F)CC1 | 6.8 | 3300 | 22 | 150 | 32 | 5.3 | 0.35
Cc1cccnc1C1=CCN(C)CC1 | < 5.8 | 2500 | 170 | 15 |  |  | 
CN1CC=C(c2ccncc2F)CC1 | < 5.8 | 7700 | 720 | 11 |  |  | 
c1ccc(N2CCNCC2)nc1 |  |  | 37 | 65 | 5 |  | 
C1=C(c2ccccn2)CCNC1 | < 5.7 | 4000 | 144 | 28 |  |  | 
CN1CCC(c2ccccn2)CC1 | < 5.8 | 2500 | 420 | 6 |  |  | 
CN1CC=C(c2ccccn2)CC1 | 6.2 | 2500 | 57 | 44 | 6 | 5.4 | 0.5
CNCCCN1c2ccccc2CCc2ccccc21 [DESIPRAMINE] |  |  |  |  |  |  | 0.07
